Measurements: patent publication US20140343049A1, “DIHYDROFURAN DERIVATIVES AS INSECTICIDAL COMPOUNDS” (SYNGENTA PARTICIPATIONS AG, priority 2011, published 2014)

Legend:
Type in all cases: in vivo
[1] = test system: Heliothis virescens (tobacco budworm); experiment: Heliothis virescens egg test on artificial diet; details: 96 h, 200 ppm (concentration in well 18 ppm), eggs 0-24 h old, 4 days, egg mortality, larval mortality, growth regulation
Protocol: Eggs (0-24 h old) were placed in 24-well microtiter plate on artificial diet and treated with test solutions at an application rate of 200 ppm (concentration in well 18 ppm) by pipetting. After an incubation period of 4 days, samples were checked for egg mortality, larval mortality, and growth regulation.

[2] = test system: Spodoptera littoralis (Egyptian cotton leafworm); experiment: Spodoptera littoralis cotton leaf disc spray test; details: foliar, 72 h, cotton leaf discs sprayed at 200 ppm, 5 L1 larvae, mortality, feeding behavior, growth regulation 3 days after treatment
Text: Cotton leaf discs were placed on agar in a 24-well microtiter plate and sprayed with test solutions at an application rate of 200 ppm. After drying, the leaf discs were infested with 5 L1 larvae. The samples were checked for mortality, feeding behavior, and growth regulation 3 days after treatment (DAT).

[3] = test system: Diabrotica balteata (corn root worm); experiment: Diabrotica balteata L2 larvae test on artificial diet; details: 120 h, 200 ppm (concentration in well 18 ppm), 5 days, larval mortality and growth regulation
Summary of the method: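 Artificial diet treated with test solution at 200 ppm or 12.5 ppm application rate (in-well concentration stated as 18 ppm), dried, then infested with 6-10 L2 larvae per well. Larval mortality and growth regulation scored after 5 days.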

[4] = test system: Tetranychus urticae (two-spotted spider mite); experiment: Tetranychus urticae bean leaf disc spray test; details: foliar, 192 h, bean leaf discs sprayed at 200 ppm, mixed ages, egg, larval and adult mortality 8 days later
Text: Bean leaf discs on agar in 24-well microtiter plates were sprayed with test solutions at an application rate of 200 ppm. After drying, the leaf discs are infested with mite populations of mixed ages. 8 days later, discs are checked for egg mortality, larval mortality, and adult mortality. […]

[5] = test system: Thrips tabaci (onion thrips); experiment: Thrips tabaci sunflower leaf disc spray test; details: foliar, 168 h, sunflower leaf discs sprayed at 200 ppm, mixed ages, mortality after 7 days
Protocol: Sunflower leaf discs were placed on agar in a 24-well microtiter plate and sprayed with test solutions at an application rate of 200 ppm. […] After drying, the leaf discs were infested with a thrip population of mixed ages. After an incubation period of 7 days, samples were checked for mortality.

[6] = test system: Plutella xylostella (diamond back moth); experiment: Plutella xylostella L2 larvae test on artificial diet; details: 144 h, 200 ppm (concentration in well 18 ppm), 6 days, larval mortality and growth regulation
Protocol: 24-well microtiter plate (MTP) with artificial diet was treated with test solutions at an application rate of 200 ppm (concentration in well 18 ppm) by pipetting. After drying, the MTPs were infested with L2 larvae (7-12 per well). After an incubation period of 6 days, samples were checked for larval mortality and growth regulation.

[7] = test system: Myzus persicae (green peach aphid); experiment: Myzus persicae (sachet) mixed population test; details: 120 h, sucrose solution, application rate 12.5 ppm, mortality 5 days after infestation
Text: Test compounds were applied by pipette into 24 well plates and mixed with Sucrose solution. The plates were closed with a stretched Parafilm. A plastic stencil with 24 holes is placed onto the plate and infested pea seedlings were placed directly on the Parafilm. The infested plate is closed with a gel blotting paper and another plastic stencil and then turned upside down. 5 days after infestation the samples were checked on mortality. Application rate: 12.5 ppm.

CCNC(=O)c1ccc(C2=CC(c3cc(Cl)cc(Cl)c3)(C(F)(F)F)OC2)cc1C (stereo not drawn) [Compound A4]
≥ 80%: pest or weed control at 200 ppm [1] | pest or weed control at 200 ppm [2] | pest or weed control at 200 ppm [3] | pest or weed control at 200 ppm [4] | pest or weed control at 200 ppm [5] | pest or weed control at 200 ppm [6]

Cc1cc(C2=CC(c3cc(Cl)cc(Cl)c3)(C(F)(F)F)OC2)ccc1C(=O)NCc1cn(C)cn1 (stereo not drawn) [Compound A17]
≥ 80%: pest or weed control at 200 ppm [1] | pest or weed control at 200 ppm [2] | pest or weed control at 200 ppm [3] | pest or weed control at 200 ppm [4] | pest or weed control at 200 ppm [5] | pest or weed control at 200 ppm [6]

Cc1cc(C2=CC(c3cc(Cl)cc(Cl)c3)(C(F)(F)F)OC2)ccc1C(=O)NCCCBr (stereo not drawn) [Compound A19]
≥ 80%: pest or weed control at 200 ppm [1] | pest or weed control at 200 ppm [2] | pest or weed control at 200 ppm [3] | pest or weed control at 200 ppm [4] | pest or weed control at 200 ppm [5] | pest or weed control at 200 ppm [6]

Cc1cc(C2=CC(c3cc(Cl)cc(Cl)c3)(C(F)(F)F)OC2)ccc1C(=O)NCCC(F)(F)F (stereo not drawn) [Compound A20]
≥ 80%: pest or weed control at 200 ppm [1] | pest or weed control at 200 ppm [2] | pest or weed control at 200 ppm [3] | pest or weed control at 200 ppm [4] | pest or weed control at 200 ppm [5] | pest or weed control at 200 ppm [6]

CCC(C)NC(=O)c1ccc(C2=CC(c3cc(Cl)cc(Cl)c3)(C(F)(F)F)OC2)cc1C (stereo not drawn) [Compound A27]
≥ 80%: pest or weed control at 200 ppm [1] | pest or weed control at 200 ppm [2] | pest or weed control at 200 ppm [3] | pest or weed control at 200 ppm [4] | pest or weed control at 200 ppm [5] | pest or weed control at 200 ppm [6]

Cc1cc(C2=CC(c3cc(Cl)cc(Cl)c3)(C(F)(F)F)OC2)ccc1C(=O)NCC(F)F (stereo not drawn) [Compound A29]
≥ 80%: pest or weed control at 200 ppm [1] | pest or weed control at 200 ppm [2] | pest or weed control at 200 ppm [3] | pest or weed control at 200 ppm [4] | pest or weed control at 200 ppm [5] | pest or weed control at 200 ppm [6]

CO/N=C/NC(=O)c1ccc(C2=CC(c3cc(Cl)cc(Cl)c3)(C(F)(F)F)OC2)cc1C (stereo not drawn) [Compound A86, (E)-4-[5-(3,5-Dichlorophenyl)-5-trifluoromethyl-2,5-dihydro-furan-3-yl]-N-[(methoxyimino)methyl]-2-methylbenzamide]
≥ 80%: pest or weed control at 200 ppm [1] | pest or weed control at 200 ppm [2] | pest or weed control at 200 ppm [3] | pest or weed control at 200 ppm [4] | pest or weed control at 200 ppm [5] | pest or weed control at 200 ppm [6]

Cc1cc(C2=CC(c3cc(Cl)cc(Cl)c3)(C(F)(F)F)OC2)ccc1C(=O)NCCC(F)(F)F (stereo not drawn) [Compound D6]
≥ 80%: pest or weed control at 12.5 ppm [7]

CCC(C)NC(=O)c1ccc(C2=CC(c3cc(Cl)cc(Cl)c3)(C(F)(F)F)OC2)cc1C (stereo not drawn) [Compound D7]
≥ 80%: pest or weed control at 12.5 ppm [7]

Cc1cc(C2=CC(c3cc(Cl)cc(Cl)c3)(C(F)(F)F)OC2)ccc1C(=O)NCc1ccc(Cl)nc1 (stereo not drawn) [Compound D13]
≥ 80%: pest or weed control at 12.5 ppm [7] | pest or weed control at 200 ppm [3]

Cc1cc(C2=CC(c3cc(Cl)cc(Cl)c3)(C(F)(F)F)OC2)ccc1C(=O)Nc1cccc(F)c1 (stereo not drawn) [Compound D14]
≥ 80%: pest or weed control at 12.5 ppm [7] | pest or weed control at 200 ppm [3] | pest or weed control at 200 ppm [4]

Cc1csc(NC(=O)c2ccc(C3=CC(c4cc(Cl)cc(Cl)c4)(C(F)(F)F)OC3)cc2C)n1 (stereo not drawn) [Compound D17]
≥ 80%: pest or weed control at 12.5 ppm [7] | pest or weed control at 200 ppm [3]
